What was measured:
EPHA2 = EPHA2 (Homo sapiens, UniProt P29317); assay: In vitro kinase inhibition profile (biochemical); conditions: read-out: Biochemical (IC50 nmol/L)
PDGFRα = PDGFRα (Homo sapiens, UniProt P16234); assay: In vitro kinase inhibition profile (biochemical); conditions: read-out: Biochemical (IC50 nmol/L)
ARG = ARG (Homo sapiens, UniProt P42684); assay: In vitro kinase inhibition profile (biochemical); conditions: read-out: Biochemical (IC50 nmol/L)
FER = FER (Homo sapiens, UniProt P16591); assay: In vitro kinase inhibition profile (biochemical); conditions: read-out: Biochemical (IC50 nmol/L)
JAK2 = JAK2 (Homo sapiens, UniProt O60674); assay: In vitro kinase inhibition profile (biochemical); conditions: read-out: Biochemical (IC50 nmol/L)
FGFR3 = FGFR3 (Homo sapiens, UniProt P22607); assay: In vitro kinase inhibition profile (biochemical); conditions: read-out: Biochemical (IC50 nmol/L)
SRC = SRC (Homo sapiens, UniProt P12931); assay: In vitro kinase inhibition profile (biochemical); conditions: read-out: Biochemical (IC50 nmol/L)
FES = FES (Homo sapiens, UniProt P07332); assay: In vitro kinase inhibition profile (biochemical); conditions: read-out: Biochemical (IC50 nmol/L)
EPHA4 = EPHA4 (Homo sapiens, UniProt P54764); assay: In vitro kinase inhibition profile (biochemical); conditions: read-out: Biochemical (IC50 nmol/L)
EPHA1 = EPHA1 (Homo sapiens, UniProt P21709); assay: In vitro kinase inhibition profile (biochemical); conditions: read-out: Biochemical (IC50 nmol/L)
[1] = test system: LS141 (liposarcoma) cells; assay: Cell viability assay (Dojindo CCK-8); format: cell-based; conditions: LS141, 72 hours, p < 0.05
DDR1 = DDR1 (Homo sapiens, UniProt Q08345); assay: In vitro kinase inhibition profile (biochemical); conditions: read-out: Biochemical (IC50 nmol/L)
ABL = ABL (Homo sapiens, UniProt P00519); assay: In vitro kinase inhibition profile (biochemical); conditions: read-out: Biochemical (IC50 nmol/L)
BTK = BTK (Homo sapiens, UniProt Q06187); assay: In vitro kinase inhibition profile (biochemical); conditions: read-out: Biochemical (IC50 nmol/L)
FGFR4 = FGFR4 (Homo sapiens, UniProt P22455); assay: In vitro kinase inhibition profile (biochemical); conditions: read-out: Biochemical (IC50 nmol/L)
ERBB2 = ERBB2 (Homo sapiens, UniProt P04626); assay: In vitro kinase inhibition profile (biochemical); conditions: read-out: Biochemical (IC50 nmol/L)
ALK = ALK (Homo sapiens, UniProt Q9UM73); assay: In vitro kinase inhibition profile (biochemical); conditions: read-out: Biochemical (IC50 nmol/L)
VEGFR3 (FLT4) = VEGFR3 (FLT4) (Homo sapiens, UniProt P35916); assay: In vitro kinase inhibition profile (biochemical); conditions: read-out: Biochemical (IC50 nmol/L)
Ki67 = Ki67 immunohistochemistry of xenograft tumor tissue; conditions: 3 weeks treatment, compared to vehicle control
FGFR1 = FGFR1 (Homo sapiens, UniProt P11362); assay: In vitro kinase inhibition profile (biochemical); conditions: read-out: Biochemical (IC50 nmol/L)
MPNST cell line = assay: Colony formation assay; format: cell-based; conditions: 500 nmol/L, 24 hours treatment, 10 to 14 days drug-free
Description: . Cell viability was measured using Dojindo Cell Counting Kit 8. Graphs were generated as a percentage of the no drug (ND) control. Error bars represent standard error mean. Combined data from at least two independent experiments is shown. Note: For Figure 4A, error bars are included; however, they are too small to be seen. C. Indicated cell lines were grown to 60% confluency in serum free media overnight. […] After the drug treatments, cells were stimulated in drug free media containing 10%FBS. […] Representative western blots from two independent experiments are shown. D. 1,000 cells were plated, in triplicate, onto 100mm dishes and treated the next day with the indicated drugs in media containing 10%FBS for 24 hours. Following treatment, cells were cultured in drug-free media for 10 to 14 days. Colonies were scored with ColCount software from Oxford Optronix (Abingdon, UK). Combined data from the experiment carried out in triplicate is shown.
1,000 cells were plated, in triplicate, onto 100 mm dishes and allowed to adhere overnight. Cells were treated for 24 hours with the indicated drugs. Following treatment, cells were cultured in drug-free media for 10 to 14 days. The resulting colonies were fixed in 20% ethanol and stained with 2.5% crystal violet. Colonies were scored with ColCount software from Oxford Optronix (Abingdon, UK).

[2] = test system: cyclin D1, p-Rb, cleaved PARP; assay: Western blot of cell-cycle and apoptosis markers in MPNST cells; format: cell-based
Description: Western blots were carried out as previously described.
www.impactjournals.com/oncotarget/ Oncotarget, Supplementary Materials 2015
Supplementary Figure S2: A . LS141 cells were plated in 96-well plates and treated in triplicate with indicated concentration
of drugs for 72 hours. Cell viability was measured using Dojindo Cell Counting Kit 8. Error bars represent standard error mean. Combined
data from at least two independent experiments is shown. […]
fold increase in G1 phase compared to no drug control. * = p<0.05, ** = p<0.005. Error bars represent standard error mean. Combined data
from two independent experiments is shown.
treated with MGCD516. C. MPNST cells were plated in 96-well plates and treated in triplicate with indicated concentrations of drugs for
72 hours. Cell viability was measured using Dojindo Cell Counting Kit 8. Error bars represent standard error mean. Combined data from
two independent experiments is shown. […]

[3] = test system: phosphorylation of c-Kit, IGF1-R, PDGFRβ, p-AKT (Ser473), p-S6 (Ser235/236); assay: Western blot of xenograft tissue after 3 weeks of treatment
MPNST xenografts = assay: MPNST mouse xenograft tumor growth; format: in vivo, ICR/SCID mice; conditions: MGCD516 15 mg/kg p.o., crizotinib 50 mg/kg i.p., imatinib 30 mg/kg i.p., QD 5 days a week
Description: […]. […] […]. Tumor size was measured twice weekly by caliper.

HCK = HCK (Homo sapiens, UniProt P08631); assay: In vitro kinase inhibition profile (biochemical); conditions: read-out: Biochemical (IC50 nmol/L)
EPHB3 = EPHB3 (Homo sapiens, UniProt P54753); assay: In vitro kinase inhibition profile (biochemical); conditions: read-out: Biochemical (IC50 nmol/L)
JAK1 = JAK1 (Homo sapiens, UniProt P23458); assay: In vitro kinase inhibition profile (biochemical); conditions: read-out: Biochemical (IC50 nmol/L)
ZAP70 = ZAP70 (Homo sapiens, UniProt P43403); assay: In vitro kinase inhibition profile (biochemical); conditions: read-out: Biochemical (IC50 nmol/L)
Sequence of ZAP70 (P43403 whole entry): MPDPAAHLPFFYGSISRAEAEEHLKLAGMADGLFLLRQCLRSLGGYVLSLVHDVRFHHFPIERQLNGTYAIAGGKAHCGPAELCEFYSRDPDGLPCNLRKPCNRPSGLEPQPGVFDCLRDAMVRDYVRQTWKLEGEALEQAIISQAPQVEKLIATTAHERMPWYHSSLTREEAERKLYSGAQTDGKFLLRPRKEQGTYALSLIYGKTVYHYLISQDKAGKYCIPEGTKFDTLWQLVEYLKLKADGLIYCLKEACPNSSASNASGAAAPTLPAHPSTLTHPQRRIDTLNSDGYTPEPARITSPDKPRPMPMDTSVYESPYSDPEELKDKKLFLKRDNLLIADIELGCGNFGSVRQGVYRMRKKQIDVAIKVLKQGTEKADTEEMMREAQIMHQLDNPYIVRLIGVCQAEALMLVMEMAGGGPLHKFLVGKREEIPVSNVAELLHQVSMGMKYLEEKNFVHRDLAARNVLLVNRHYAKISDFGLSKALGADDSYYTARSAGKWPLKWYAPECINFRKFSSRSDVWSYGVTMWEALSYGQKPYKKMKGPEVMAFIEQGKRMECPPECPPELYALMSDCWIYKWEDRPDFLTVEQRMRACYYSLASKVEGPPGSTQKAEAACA

Sequence of VEGFR3 (FLT4) (P35916 25-1363): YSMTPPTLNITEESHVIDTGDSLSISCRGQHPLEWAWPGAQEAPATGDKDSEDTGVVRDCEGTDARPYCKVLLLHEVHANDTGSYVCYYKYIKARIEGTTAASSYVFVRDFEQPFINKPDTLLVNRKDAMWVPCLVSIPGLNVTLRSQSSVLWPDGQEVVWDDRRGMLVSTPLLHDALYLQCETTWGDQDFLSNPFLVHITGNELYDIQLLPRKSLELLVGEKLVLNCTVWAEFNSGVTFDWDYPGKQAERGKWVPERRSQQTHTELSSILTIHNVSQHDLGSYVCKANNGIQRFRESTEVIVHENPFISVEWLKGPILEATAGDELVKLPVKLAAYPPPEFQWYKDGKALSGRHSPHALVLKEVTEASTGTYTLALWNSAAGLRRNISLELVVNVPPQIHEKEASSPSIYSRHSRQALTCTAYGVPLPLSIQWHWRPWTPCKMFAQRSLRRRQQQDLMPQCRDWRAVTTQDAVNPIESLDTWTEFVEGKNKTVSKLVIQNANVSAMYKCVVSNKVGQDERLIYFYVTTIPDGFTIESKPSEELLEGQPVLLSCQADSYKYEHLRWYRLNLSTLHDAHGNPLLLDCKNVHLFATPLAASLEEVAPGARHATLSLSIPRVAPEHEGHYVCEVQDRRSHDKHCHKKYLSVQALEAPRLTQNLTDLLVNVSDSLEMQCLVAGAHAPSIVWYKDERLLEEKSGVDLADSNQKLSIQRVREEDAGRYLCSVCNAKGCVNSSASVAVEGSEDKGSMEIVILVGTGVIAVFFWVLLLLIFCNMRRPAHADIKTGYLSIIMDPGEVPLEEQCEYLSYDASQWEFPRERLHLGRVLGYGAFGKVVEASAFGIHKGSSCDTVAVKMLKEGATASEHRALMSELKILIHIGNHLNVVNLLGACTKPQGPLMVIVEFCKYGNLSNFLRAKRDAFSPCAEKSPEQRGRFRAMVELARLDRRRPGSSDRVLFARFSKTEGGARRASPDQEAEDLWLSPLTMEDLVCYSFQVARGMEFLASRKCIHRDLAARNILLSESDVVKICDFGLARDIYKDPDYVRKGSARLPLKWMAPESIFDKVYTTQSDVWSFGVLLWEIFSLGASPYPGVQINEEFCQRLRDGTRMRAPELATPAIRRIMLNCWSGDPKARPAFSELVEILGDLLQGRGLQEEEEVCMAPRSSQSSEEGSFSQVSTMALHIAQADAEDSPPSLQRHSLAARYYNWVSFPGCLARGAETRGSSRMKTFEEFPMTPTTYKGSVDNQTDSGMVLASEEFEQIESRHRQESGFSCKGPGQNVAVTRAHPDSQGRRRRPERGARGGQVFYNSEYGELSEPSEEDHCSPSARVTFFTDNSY
Sequence of DDR1 (Q08345 19-913): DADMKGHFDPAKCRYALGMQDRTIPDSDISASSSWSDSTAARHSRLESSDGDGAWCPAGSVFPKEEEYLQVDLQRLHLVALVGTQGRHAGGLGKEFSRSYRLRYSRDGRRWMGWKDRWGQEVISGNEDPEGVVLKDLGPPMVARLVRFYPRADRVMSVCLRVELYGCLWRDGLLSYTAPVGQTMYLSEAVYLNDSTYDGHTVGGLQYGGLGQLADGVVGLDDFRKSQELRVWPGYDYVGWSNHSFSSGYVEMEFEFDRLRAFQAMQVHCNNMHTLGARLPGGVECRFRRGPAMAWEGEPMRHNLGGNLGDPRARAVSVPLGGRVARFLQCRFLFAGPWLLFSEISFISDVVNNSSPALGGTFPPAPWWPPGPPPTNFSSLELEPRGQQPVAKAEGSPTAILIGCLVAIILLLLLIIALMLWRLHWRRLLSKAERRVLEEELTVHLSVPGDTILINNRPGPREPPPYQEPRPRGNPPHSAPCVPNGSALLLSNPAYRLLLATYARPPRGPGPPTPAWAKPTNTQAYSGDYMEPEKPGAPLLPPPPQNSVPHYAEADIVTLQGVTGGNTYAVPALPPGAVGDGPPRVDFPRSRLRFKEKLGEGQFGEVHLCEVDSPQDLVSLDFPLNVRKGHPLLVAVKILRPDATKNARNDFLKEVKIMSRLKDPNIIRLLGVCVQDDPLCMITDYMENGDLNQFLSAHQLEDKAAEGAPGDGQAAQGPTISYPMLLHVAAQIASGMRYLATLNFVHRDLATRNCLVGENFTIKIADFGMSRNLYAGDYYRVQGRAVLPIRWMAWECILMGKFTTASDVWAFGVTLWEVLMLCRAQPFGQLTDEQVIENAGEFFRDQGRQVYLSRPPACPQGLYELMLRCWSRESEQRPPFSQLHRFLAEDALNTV
Sequence of FGFR1 (P11362 22-822): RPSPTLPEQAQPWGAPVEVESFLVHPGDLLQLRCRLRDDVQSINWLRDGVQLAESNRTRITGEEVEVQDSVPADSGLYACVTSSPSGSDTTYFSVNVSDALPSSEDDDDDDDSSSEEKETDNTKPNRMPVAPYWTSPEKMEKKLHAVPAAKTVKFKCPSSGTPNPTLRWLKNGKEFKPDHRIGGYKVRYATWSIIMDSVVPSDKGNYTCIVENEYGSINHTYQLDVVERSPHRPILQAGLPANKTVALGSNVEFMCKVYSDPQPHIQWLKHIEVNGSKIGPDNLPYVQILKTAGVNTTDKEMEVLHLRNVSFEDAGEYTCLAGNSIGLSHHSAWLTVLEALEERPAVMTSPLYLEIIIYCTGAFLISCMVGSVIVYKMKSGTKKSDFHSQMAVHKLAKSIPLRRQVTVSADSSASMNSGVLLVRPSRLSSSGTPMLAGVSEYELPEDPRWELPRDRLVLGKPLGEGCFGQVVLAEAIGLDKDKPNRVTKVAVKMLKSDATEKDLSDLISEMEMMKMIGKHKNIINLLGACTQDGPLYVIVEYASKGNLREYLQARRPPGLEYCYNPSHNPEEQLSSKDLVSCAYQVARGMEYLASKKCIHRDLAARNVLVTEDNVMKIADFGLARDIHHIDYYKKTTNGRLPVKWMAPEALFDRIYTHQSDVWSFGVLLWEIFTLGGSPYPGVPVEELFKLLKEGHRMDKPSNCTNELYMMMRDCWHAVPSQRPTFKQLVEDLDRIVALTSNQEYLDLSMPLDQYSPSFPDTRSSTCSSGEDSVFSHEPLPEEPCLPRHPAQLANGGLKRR
Sequence of ERBB2 (P04626 23-1255): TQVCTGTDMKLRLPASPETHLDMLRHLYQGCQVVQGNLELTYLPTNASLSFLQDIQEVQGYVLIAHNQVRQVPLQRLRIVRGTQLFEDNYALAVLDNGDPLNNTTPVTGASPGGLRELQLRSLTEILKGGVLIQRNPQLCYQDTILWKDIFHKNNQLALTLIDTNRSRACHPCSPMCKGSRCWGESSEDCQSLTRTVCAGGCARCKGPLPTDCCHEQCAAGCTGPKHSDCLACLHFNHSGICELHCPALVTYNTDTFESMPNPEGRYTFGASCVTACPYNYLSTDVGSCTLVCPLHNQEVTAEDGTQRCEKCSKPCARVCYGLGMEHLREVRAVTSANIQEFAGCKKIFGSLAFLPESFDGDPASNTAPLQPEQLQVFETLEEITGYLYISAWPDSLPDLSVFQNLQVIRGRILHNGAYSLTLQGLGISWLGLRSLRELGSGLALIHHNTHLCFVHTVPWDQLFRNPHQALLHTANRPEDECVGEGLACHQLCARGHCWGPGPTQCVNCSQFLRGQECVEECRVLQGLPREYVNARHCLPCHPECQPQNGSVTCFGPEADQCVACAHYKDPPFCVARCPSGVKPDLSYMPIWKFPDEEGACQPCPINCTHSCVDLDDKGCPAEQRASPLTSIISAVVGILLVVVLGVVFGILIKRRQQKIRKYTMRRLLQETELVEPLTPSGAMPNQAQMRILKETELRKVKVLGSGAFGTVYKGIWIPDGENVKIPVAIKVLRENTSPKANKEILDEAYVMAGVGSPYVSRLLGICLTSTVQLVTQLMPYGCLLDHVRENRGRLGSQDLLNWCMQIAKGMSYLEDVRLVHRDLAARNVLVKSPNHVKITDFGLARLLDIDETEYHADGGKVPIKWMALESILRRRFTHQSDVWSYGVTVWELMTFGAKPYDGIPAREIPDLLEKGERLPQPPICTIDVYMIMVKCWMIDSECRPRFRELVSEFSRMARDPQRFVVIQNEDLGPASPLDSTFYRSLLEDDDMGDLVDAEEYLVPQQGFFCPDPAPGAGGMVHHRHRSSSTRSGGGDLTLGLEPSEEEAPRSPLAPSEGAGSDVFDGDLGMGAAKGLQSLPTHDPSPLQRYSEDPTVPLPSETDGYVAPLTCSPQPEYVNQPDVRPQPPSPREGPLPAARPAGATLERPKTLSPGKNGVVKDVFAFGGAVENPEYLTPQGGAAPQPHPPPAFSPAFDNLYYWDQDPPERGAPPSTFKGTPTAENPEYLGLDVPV

## COCCNCc1ccc(-c2cc3nccc(Oc4ccc(NC(=O)C5(C(=O)Nc6ccc(F)cc6)CC5)cc4F)c3s2)nc1 [MGCD516, Sitravatinib]
EPHA2
  IC50: 44 nmol/L
PDGFRα
  IC50: 30 nmol/L
ARG
  IC50: 4100 nmol/L
FER
  IC50: 1590 nmol/L
JAK2
  IC50: > 10000 nmol/L
FGFR3
  IC50: > 5000 nmol/L
SRC
  IC50: 156 nmol/L
FES
  IC50: 2010 nmol/L
EPHA4
  IC50: 76 nmol/L
EPHA1
  IC50: > 10000 nmol/L
[1]
  anti-proliferative effect compared with carbozantinib and foretinib: significantly higher anti-proliferative effect
DDR1
  IC50: 29 nmol/L
ABL
  IC50: 2990 nmol/L
BTK
  IC50: 304 nmol/L
FGFR4
  IC50: > 5000 nmol/L
ERBB2
  IC50: > 5000 nmol/L
ALK
  IC50: > 10000 nmol/L
VEGFR3 (FLT4)
  IC50: 2 nmol/L
Ki67
  Ki67 staining of tumor samples: significantly less Ki67 staining
FGFR1
  IC50: > 5000 nmol/L
MPNST cell line
  colony number: significant reduction in colony number
[2]
  cleaved PARP: no induction of cleaved PARP
  cyclin D1 level: significant down-regulation of cyclin D1
  hyperphosphorylated form of retinoblastoma protein (p-Rb): significant decrease
[3]
  downstream effector pathways p-AKT (Ser473) and p-S6 (Ser235/236) in tumor tissue: significant down-regulation
MPNST xenografts
  tumor growth: significant suppression of tumor growth
HCK
  IC50: 1110 nmol/L
EPHB3
  IC50: 249 nmol/L
JAK1
  IC50: > 10000 nmol/L
ZAP70
  IC50: > 10000 nmol/L

Source: publication PMC4826192 (Oncotarget, 2015)
